Patent publication US7396837B2, “Antitumoral analogs of lamellarins” (Pharma Mar, S.A.U., priority 2002, dated 2008)

Assays:
Assay type in all cases: cell-based
LoVo = test: SRB colorimetric cell growth inhibition assay, LoVo; conditions: Homo sapiens, LoVo; for GI50: GI=growth inhibition, read-out: GI50 LOVO; for CC50: LC=cell killing (cytotoxic effect), read-out: LC50 LOVO; for IC (TGI): TGI=total growth inhibition (cytostatic effect), read-out: TGI LOVO
Method in brief: (§1)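 Tested samples remained on human cancer cell cultures throughout the incubation; viable biomass was then stained with SRB and read colorimetrically.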

[1] = SRB colorimetric cell growth inhibition assay, H-MEC-1; conditions: human, H-MEC-1 cells, H-MEC-1; LC=cell killing (cytotoxic effect); read-out: LC50 H-MEC-1
Method in brief: (§2)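 Growth and viability quantified by sulforhodamine B staining in 96-well microplates. Triplicate wells give mean ± SD; derived endpoints are GI, TGI (cytostatic) and LC (cytotoxic).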

H-MEC-1 = test: as above; conditions: Homo sapiens, HMEC-1, H-MEC-1; for GI50: GI=growth inhibition; for IC (TGI): TGI=total growth inhibition (cytostatic effect), read-out: TGI H-MEC-1
Method in brief: as §2

SK-MEL-28 = test: SRB colorimetric cell growth inhibition assay, SK-MEL-28; conditions: Homo sapiens, SK-MEL-28, MEL-28; for GI50: GI=growth inhibition, read-out: GI50 MEL-28; for CC50: LC=cell killing (cytotoxic effect), read-out: LC50 MEL-28; for IC (TGI): TGI=total growth inhibition (cytostatic effect), read-out: TGI MEL-28
Method in brief: as §1

LNCaP = test: SRB colorimetric cell growth inhibition assay, LNCaP; conditions: Homo sapiens, LNCaP, LN-caP; for GI50: GI=growth inhibition, read-out: GI50 LN-caP; for CC50: LC=cell killing (cytotoxic effect), read-out: LC50 LN-caP; for IC (TGI): TGI=total growth inhibition (cytostatic effect), read-out: TGI LN-caP
Method in brief: as §1

SK-BR-3 = test: SRB colorimetric cell growth inhibition assay, SK-BR-3; conditions: Homo sapiens, SK-BR-3, SK-BR-3; for GI50: GI=growth inhibition, read-out: GI50 SK-BR-3; for CC50: LC=cell killing (cytotoxic effect), read-out: LC50 SK-BR-3; for IC (TGI): TGI=total growth inhibition (cytostatic effect), read-out: TGI SK-BR-3
Method in brief: as §1

SKOV-3 = test: SRB colorimetric cell growth inhibition assay, SKOV-3; conditions: Homo sapiens; for GI50: SK-OV-3, SKOV-3, GI=growth inhibition, read-out: GI50 SKOV-3; for CC50 / IC (TGI): SK-OV-3, SKOV-3; for CC50: LC=cell killing (cytotoxic effect), read-out: LC50 SKOV-3; for IC (TGI): TGI=total growth inhibition (cytostatic effect), read-out: TGI SKOV-3
Method in brief: as §2

LoVo-Dox = test: SRB colorimetric cell growth inhibition assay, LoVo-Dox (MDR); conditions: Homo sapiens, LOVO-DOX; for GI50: GI=growth inhibition, read-out: GI50 LOVO-DOX; for CC50: LC=cell killing (cytotoxic effect), read-out: LC50 LOVO-DOX; for IC (TGI): TGI=total growth inhibition (cytostatic effect), read-out: TGI LOVO-DOX
Method in brief: as §1

PANC-1 = test: SRB colorimetric cell growth inhibition assay, PANC-1; conditions: Homo sapiens, PANC-1, PANC-1; for GI50: GI=growth inhibition, read-out: GI50 PANC-1; for CC50: LC=cell killing (cytotoxic effect), read-out: LC50 PANC-1; for IC (TGI): TGI=total growth inhibition (cytostatic effect), read-out: TGI PANC-1
Method in brief: as §1

A-549 = test: SRB colorimetric cell growth inhibition assay, A-549; conditions: Homo sapiens, A549, A-549; for GI50: GI=growth inhibition, read-out: GI50 A-549; for CC50: LC=cell killing (cytotoxic effect), read-out: LC50 A-549; for IC (TGI): TGI=total growth inhibition (cytostatic effect), read-out: TGI A-549
Method in brief: as §1

IGROV = test: SRB colorimetric cell growth inhibition assay, IGROV; conditions: Homo sapiens, IGROV; for GI50: GI=growth inhibition, read-out: GI50 IGROV; for CC50: LC=cell killing (cytotoxic effect), read-out: LC50 IGROV; for IC (TGI): TGI=total growth inhibition (cytostatic effect), read-out: TGI IGROV
Method in brief: as §1

HT-29 = test: SRB colorimetric cell growth inhibition assay, HT-29; conditions: Homo sapiens, HT-29, HT-29; for GI50: GI=growth inhibition, read-out: GI50 HT-29; for CC50: LC=cell killing (cytotoxic effect), read-out: LC50 HT-29; for IC (TGI): TGI=total growth inhibition (cytostatic effect), read-out: TGI HT-29
Method in brief: as §1

IGROV-ET = test: SRB colorimetric cell growth inhibition assay, IGROV-ET (ET-743 resistant); conditions: Homo sapiens, IGROV-ET; for GI50: GI=growth inhibition, read-out: GI50 IGROV-ET; for CC50: LC=cell killing (cytotoxic effect), read-out: LC50 IGROV-ET; for IC (TGI): TGI=total growth inhibition (cytostatic effect), read-out: TGI IGROV-ET
Method in brief: as §1

K-562 = test: SRB colorimetric cell growth inhibition assay, K-562; conditions: Homo sapiens, K562, K-562; for GI50: GI=growth inhibition, read-out: GI50 K-562; for CC50: LC=cell killing (cytotoxic effect), read-out: LC50 K-562; for IC (TGI): TGI=total growth inhibition (cytostatic effect), read-out: TGI K-562
Method in brief: as §1

DU-145 = test: SRB colorimetric cell growth inhibition assay, DU-145; conditions: Homo sapiens, DU-145, DU-145; for GI50: GI=growth inhibition, read-out: GI50 DU-145; for CC50: LC=cell killing (cytotoxic effect), read-out: LC50 DU-145; for IC (TGI): TGI=total growth inhibition (cytostatic effect), read-out: TGI DU-145
Method in brief: as §1

Compound `COc1cc(-c2c3n(c4c(=O)oc5cc(OC(=O)[C@@H](N)COCc6ccccc6)c(OC)cc5c24)CCc2c-3cc(OC)c(OC)c2OC(=O)[C@@H](N)COCc2ccccc2)ccc1OC(=O)[C@@H](N)COCc1ccccc1` [Compound 66] has a GI50 (LoVo) of 2.19 µM, a CC50 (LoVo) of 7.12 µM and an IC (TGI) (LoVo) of 7.12 µM. For the same compound, the CC50 [1] was 4.93 µM, the GI50 (H-MEC-1) was 1.52 µM and the IC (TGI) (H-MEC-1) was 2.73 µM. For the same compound, the GI50 (SK-MEL-28) was 1.42 µM, the CC50 (SK-MEL-28) was 4.55 µM and the IC (TGI) (SK-MEL-28) was 2.55 µM. The GI50 (LNCaP) was 0.89 µM, the CC50 (LNCaP) was 4.03 µM and the IC (TGI) (LNCaP) was 1.89 µM. The GI50 (SK-BR-3) was 0.434 µM, the CC50 (SK-BR-3) was 7.12 µM and the IC (TGI) (SK-BR-3) was 1.82 µM. It also gave a GI50 (SKOV-3) of 2.85 µM, a CC50 (SKOV-3) of 7.12 µM and an IC (TGI) (SKOV-3) of 6.28 µM. The GI50 (LoVo-Dox) was 1.91 µM, the CC50 (LoVo-Dox) was 7.12 µM and the IC (TGI) (LoVo-Dox) was 5.56 µM. The GI50 (PANC-1) was 1.95 µM, the CC50 (PANC-1) was 7.12 µM and the IC (TGI) (PANC-1) was 7.12 µM. For the same compound, the GI50 (A-549) was 1.86 µM, the CC50 (A-549) was 6.43 µM and the IC (TGI) (A-549) was 3.46 µM. The GI50 (IGROV) was 1.35 µM, the CC50 (IGROV) was 6.75 µM and the IC (TGI) (IGROV) was 3.02 µM. It also gave a GI50 (HT-29) of 2.77 µM, a CC50 (HT-29) of 7.12 µM and an IC (TGI) (HT-29) of 6.77 µM. It also gave a GI50 (IGROV-ET) of 1.22 µM, a CC50 (IGROV-ET) of 6.87 µM and an IC (TGI) (IGROV-ET) of 2.9 µM. For the same compound, the GI50 (K-562) was 0.982 µM, the CC50 (K-562) was 7.12 µM and the IC (TGI) (K-562) was 2.8 µM. It also gave a GI50 (DU-145) of 1.73 µM, a CC50 (DU-145) of 7.12 µM and an IC (TGI) (DU-145) of 3.65 µM.
Work on `COc1cc2ccn3c(c(-c4ccc(OC(=O)[C@H](C)NC(=O)OC(C)(C)C)c(OC)c4)c4c5cc(OC)c(OC(=O)[C@H](C)NC(=O)OC(C)(C)C)cc5oc(=O)c43)c2cc1OC` [Compound 77] yielded a GI50 (LoVo) of 11.7 µM, a CC50 (LoVo) of 11.7 µM and an IC (TGI) (LoVo) of 11.7 µM. The CC50 [1] was 11.7 µM, the GI50 (H-MEC-1) was 2.71 µM and the IC (TGI) (H-MEC-1) was 11.7 µM. The GI50 (SK-MEL-28) was 3.29 µM, the CC50 (SK-MEL-28) was 11.7 µM and the IC (TGI) (SK-MEL-28) was 10.1 µM. It also gave a GI50 (LNCaP) of 7.51 µM, a CC50 (LNCaP) of 11.7 µM and an IC (TGI) (LNCaP) of 11.7 µM. For the same compound, the GI50 (SK-BR-3) was 3.53 µM, the CC50 (SK-BR-3) was 11.7 µM and the IC (TGI) (SK-BR-3) was 11.7 µM. The GI50 (SKOV-3) was 7.52 µM, the CC50 (SKOV-3) was 11.7 µM and the IC (TGI) (SKOV-3) was 11.7 µM. For the same compound, the GI50 (LoVo-Dox) was 10.2 µM, the CC50 (LoVo-Dox) was 11.7 µM and the IC (TGI) (LoVo-Dox) was 11.7 µM. It also gave a GI50 (PANC-1) of 4.46 µM, a CC50 (PANC-1) of 11.7 µM and an IC (TGI) (PANC-1) of 11.7 µM. The GI50 (A-549) was 6.69 µM, the CC50 (A-549) was 11.7 µM and the IC (TGI) (A-549) was 11.7 µM. It also gave a GI50 (IGROV) of 5.92 µM, a CC50 (IGROV) of 11.7 µM and an IC (TGI) (IGROV) of 8.84 µM. It also gave a GI50 (HT-29) of 11.7 µM, a CC50 (HT-29) of 11.7 µM and an IC (TGI) (HT-29) of 11.7 µM. For the same compound, the GI50 (IGROV-ET) was 0.258 µM, the CC50 (IGROV-ET) was 11.7 µM and the IC (TGI) (IGROV-ET) was 1.17 µM. The GI50 (K-562) was 2.13 µM, the CC50 (K-562) was 11.7 µM and the IC (TGI) (K-562) was 6.15 µM. The GI50 (DU-145) was 0.8 µM, the CC50 (DU-145) was 11.7 µM and the IC (TGI) (DU-145) was 3.96 µM.
`COc1cc2c(cc1OC)-c1c(-c3ccc(OC(=O)[C@H](Cc4ccccc4)NC(=O)OC(C)(C)C)c(OC)c3)c3c4cc(OC)c(OC(=O)[C@H](Cc5ccccc5)NC(=O)OC(C)(C)C)cc4oc(=O)c3n1CC2` [Compound 84] showed a GI50 (LoVo) of 4.48 µM, a CC50 (LoVo) of 9.9 µM and an IC (TGI) (LoVo) of 9.9 µM. The CC50 [1] was 5.96 µM, the GI50 (H-MEC-1) was 0.682 µM and the IC (TGI) (H-MEC-1) was 1.86 µM. For the same compound, the GI50 (SK-MEL-28) was 2.07 µM, the CC50 (SK-MEL-28) was 7.21 µM and the IC (TGI) (SK-MEL-28) was 3.86 µM. For the same compound, the GI50 (LNCaP) was 0.71 µM, the CC50 (LNCaP) was 5.21 µM and the IC (TGI) (LNCaP) was 2.01 µM. The GI50 (SK-BR-3) was 0.46 µM, the CC50 (SK-BR-3) was 9.9 µM and the IC (TGI) (SK-BR-3) was 0.95 µM. It also gave a GI50 (SKOV-3) of 4.58 µM, a CC50 (SKOV-3) of 9.9 µM and an IC (TGI) (SKOV-3) of 9.9 µM. The GI50 (LoVo-Dox) was 9.9 µM, the CC50 (LoVo-Dox) was 9.9 µM and the IC (TGI) (LoVo-Dox) was 9.9 µM. The GI50 (PANC-1) was 0.501 µM, the CC50 (PANC-1) was 9.9 µM and the IC (TGI) (PANC-1) was 5.47 µM. For the same compound, the GI50 (A-549) was 2.66 µM, the CC50 (A-549) was 9.03 µM and the IC (TGI) (A-549) was 4.91 µM. The GI50 (IGROV) was 2.41 µM, the CC50 (IGROV) was 9.9 µM and the IC (TGI) (IGROV) was 6.28 µM. It also gave a GI50 (HT-29) of 2.34 µM, a CC50 (HT-29) of 9.9 µM and an IC (TGI) (HT-29) of 9.9 µM. For the same compound, the GI50 (IGROV-ET) was 4.26 µM, the CC50 (IGROV-ET) was 9.9 µM and the IC (TGI) (IGROV-ET) was 8.25 µM. It also gave a GI50 (K-562) of 0.731 µM, a CC50 (K-562) of 9.9 µM and an IC (TGI) (K-562) of 3.3 µM. The GI50 (DU-145) was 3.41 µM, the CC50 (DU-145) was 9.9 µM and the IC (TGI) (DU-145) was 8.36 µM.
